The record followed here is ChEMBL document CHEMBL1641382, “New imidazoline/α(2)-adrenoceptors affecting compounds-4(5)-(2-aminoethyl)imidazoline (dihydrohistamine) derivatives. Synthesis and receptor affinity studies” (Bioorg Med Chem, 2011).

The target of one experiment is Nischarin (Rattus norvegicus, UniProt Q4G017). Briefly: Inhibition of Sprague-Dawley rat imidazoline I1 receptor.
Experiment [1] is described as follows: Inhibition of Sprague-Dawley rat imidazoline I2 receptor.
Experiment [2] has as its target T1, Adrenergic receptor alpha-2 (Rattus norvegicus, UniProt P22086+P19328+P22909).
T1 sequence (P22086 whole entry): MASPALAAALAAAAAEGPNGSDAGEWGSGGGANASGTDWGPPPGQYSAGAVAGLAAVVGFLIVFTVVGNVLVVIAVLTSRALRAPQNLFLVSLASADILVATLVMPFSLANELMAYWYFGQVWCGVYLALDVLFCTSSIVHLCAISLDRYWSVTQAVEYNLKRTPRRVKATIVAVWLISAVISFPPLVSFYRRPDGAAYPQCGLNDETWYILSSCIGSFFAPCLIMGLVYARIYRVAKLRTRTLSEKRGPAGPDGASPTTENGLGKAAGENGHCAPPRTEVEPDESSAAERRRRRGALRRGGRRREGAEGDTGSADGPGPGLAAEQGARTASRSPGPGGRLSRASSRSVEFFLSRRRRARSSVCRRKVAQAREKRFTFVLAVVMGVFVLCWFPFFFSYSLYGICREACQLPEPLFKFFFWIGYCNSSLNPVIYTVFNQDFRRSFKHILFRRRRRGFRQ
T1 sequence (P19328 whole entry): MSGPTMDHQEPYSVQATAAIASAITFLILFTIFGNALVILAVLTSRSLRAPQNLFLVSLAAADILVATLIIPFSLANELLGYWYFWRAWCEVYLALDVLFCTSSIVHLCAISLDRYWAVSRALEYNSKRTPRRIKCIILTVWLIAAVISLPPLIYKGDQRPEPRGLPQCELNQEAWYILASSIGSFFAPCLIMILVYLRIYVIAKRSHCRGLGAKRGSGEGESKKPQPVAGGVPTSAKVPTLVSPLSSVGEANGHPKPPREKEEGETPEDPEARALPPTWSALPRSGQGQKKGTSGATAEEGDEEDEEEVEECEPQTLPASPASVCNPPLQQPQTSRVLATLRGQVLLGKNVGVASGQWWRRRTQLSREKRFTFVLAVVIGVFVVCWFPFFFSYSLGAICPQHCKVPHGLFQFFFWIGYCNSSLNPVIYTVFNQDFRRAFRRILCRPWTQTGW
T1 sequence (P22909 whole entry): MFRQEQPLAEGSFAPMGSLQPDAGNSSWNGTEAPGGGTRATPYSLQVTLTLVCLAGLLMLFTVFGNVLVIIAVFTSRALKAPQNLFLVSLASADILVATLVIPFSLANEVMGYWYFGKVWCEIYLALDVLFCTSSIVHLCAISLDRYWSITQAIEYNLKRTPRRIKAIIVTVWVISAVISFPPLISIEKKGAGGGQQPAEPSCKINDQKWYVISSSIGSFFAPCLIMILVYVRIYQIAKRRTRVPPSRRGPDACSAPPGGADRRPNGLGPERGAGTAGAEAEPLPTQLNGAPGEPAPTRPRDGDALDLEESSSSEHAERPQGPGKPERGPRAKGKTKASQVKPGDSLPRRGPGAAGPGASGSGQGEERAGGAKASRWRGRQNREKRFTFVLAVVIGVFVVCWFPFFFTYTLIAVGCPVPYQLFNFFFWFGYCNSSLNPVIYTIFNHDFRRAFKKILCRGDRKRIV
Description: Inhibition of Sprague-Dawley rat alpha-2 adrenergic receptor.

Experiment [3] in a line: Inhibition of Wistar rat imidazoline I2 receptor.

Each structure is given as a SMILES string.

Sequence of Nischarin (Q4G017 whole entry): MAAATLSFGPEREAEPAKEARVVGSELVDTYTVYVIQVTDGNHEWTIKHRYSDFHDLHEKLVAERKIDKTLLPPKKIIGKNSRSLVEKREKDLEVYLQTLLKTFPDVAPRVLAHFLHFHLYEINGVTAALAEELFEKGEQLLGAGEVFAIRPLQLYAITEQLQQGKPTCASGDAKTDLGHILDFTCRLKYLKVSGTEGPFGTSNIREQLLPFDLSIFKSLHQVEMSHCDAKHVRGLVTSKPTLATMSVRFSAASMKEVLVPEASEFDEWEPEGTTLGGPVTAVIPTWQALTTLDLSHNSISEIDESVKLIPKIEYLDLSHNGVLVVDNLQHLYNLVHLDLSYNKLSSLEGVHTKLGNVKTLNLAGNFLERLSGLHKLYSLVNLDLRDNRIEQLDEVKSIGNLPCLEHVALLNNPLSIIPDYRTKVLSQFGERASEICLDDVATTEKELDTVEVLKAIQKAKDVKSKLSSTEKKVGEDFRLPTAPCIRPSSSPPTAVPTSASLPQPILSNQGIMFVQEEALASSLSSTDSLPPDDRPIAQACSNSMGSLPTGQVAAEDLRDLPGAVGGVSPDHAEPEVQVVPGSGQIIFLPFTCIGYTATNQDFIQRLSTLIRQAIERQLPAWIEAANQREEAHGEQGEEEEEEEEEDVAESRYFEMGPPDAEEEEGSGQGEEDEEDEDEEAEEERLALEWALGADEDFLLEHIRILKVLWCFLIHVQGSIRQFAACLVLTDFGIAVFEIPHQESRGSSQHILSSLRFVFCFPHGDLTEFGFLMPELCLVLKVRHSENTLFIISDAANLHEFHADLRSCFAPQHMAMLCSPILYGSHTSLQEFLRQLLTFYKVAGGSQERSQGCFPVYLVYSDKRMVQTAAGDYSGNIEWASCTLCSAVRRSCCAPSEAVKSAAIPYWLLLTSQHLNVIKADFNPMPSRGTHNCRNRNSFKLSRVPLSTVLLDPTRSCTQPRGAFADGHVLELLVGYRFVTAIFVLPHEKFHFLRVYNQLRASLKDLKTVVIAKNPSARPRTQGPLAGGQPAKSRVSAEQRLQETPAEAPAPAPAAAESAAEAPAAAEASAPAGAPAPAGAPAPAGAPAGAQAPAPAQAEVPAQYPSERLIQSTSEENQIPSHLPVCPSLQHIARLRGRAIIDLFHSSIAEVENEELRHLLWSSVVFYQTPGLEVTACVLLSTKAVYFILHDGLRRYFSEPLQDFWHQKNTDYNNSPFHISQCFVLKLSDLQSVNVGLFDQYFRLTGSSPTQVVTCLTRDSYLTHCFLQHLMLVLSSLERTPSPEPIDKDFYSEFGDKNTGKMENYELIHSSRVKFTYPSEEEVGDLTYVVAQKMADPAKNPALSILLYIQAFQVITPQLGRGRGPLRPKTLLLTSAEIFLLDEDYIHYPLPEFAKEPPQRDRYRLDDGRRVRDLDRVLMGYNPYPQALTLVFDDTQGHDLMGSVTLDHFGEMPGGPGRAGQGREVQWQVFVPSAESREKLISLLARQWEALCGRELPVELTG

`Br.NCC[C@H]1CNC(Nc2ccccc2Br)=N1`: at Nischarin, 3.7 µM corresponded to half-maximal inhibition (IC50). Moreover, the inhibitory constant (Ki) (commonly the equilibrium dissociation constant of an inhibitor or competing ligand from its target) in experiment [1] came to 18.8 µM; in experiment [2], 1.553 µM.

Turning to `Cl.Cl.NCC[C@H]1CNC(NC(C2CC2)C2CC2)=N1`, at Nischarin, the IC50 (in general, the point on the concentration scale where inhibition reaches its midpoint) is above 100 µM. Moreover, the Ki was 28 µM in experiment [1] and 5.727 µM in experiment [2].

In turn, `Clc1cccc(Cl)c1NC1=NCCN1` [CLONIDINE] showed a Ki in experiment [1] of 0.364 µM.

`Br.NCC[C@H]1CNC(Cc2ccccc2)=N1` showed an IC50 on Nischarin of 278 µM. For the same compound, the Ki in experiment [1] was found to be 59.4 µM; in experiment [2], 23.32 µM.

Take `Br.NCC[C@H]1CNC(Nc2c(F)cccc2F)=N1`: it took 93.1 µM to reach half-maximal inhibition on Nischarin (IC50). For the same compound, the Ki turned out to be 21.8 µM in experiment [1] and 13.06 µM in experiment [2].

For the compound `Br.NCC[C@H]1CNC(Nc2cccc(Cl)c2)=N1`, 33.9 µM corresponded to half-maximal inhibition at Nischarin (IC50). The values for the Ki in experiment [1] and in experiment [2] were 20.3 µM and 7.018 µM, respectively.

`Br.Cc1cccc(NC2=N[C@H](CCN)CN2)n1` returned an IC50 on Nischarin of 8.51 µM. The Ki in experiment [1] was 39.6 µM; in experiment [2], 4.907 µM.

Take `Br.COc1ccc(NC2=N[C@@H](CCN)CN2)cc1`: at Nischarin, the IC50 amounted to 79.8 µM. In addition, the Ki in experiment [1] was found to be 24.9 µM; in experiment [2], 9.376 µM.

Take `Br.NCC[C@@H]1CNC(Nc2ccc(Cl)cc2Cl)=N1`: the IC50 against Nischarin amounted to 6.33 µM. In addition, the Ki in experiment [1] came to 92.5 µM; in experiment [2], 16.92 µM.

On Nischarin, `Br.Cc1cccc(NC2=N[C@@H](CCN)CN2)n1` returned an IC50 of 7.78 µM. Further, the Ki was found to be 15.7 µM in experiment [1] and 0.445 µM in experiment [2].

Take `NCCCCN=C(N)N` [AGMATINE]: the Ki in experiment [3] came out at 417 µM.

As to `Br.NCC[C@@H]1CNC(Nc2cccc(C(F)(F)F)c2)=N1`, 1.25 µM corresponded to half-maximal inhibition at Nischarin (IC50). Further, the results for the Ki in experiment [1] and in experiment [2] were 47.7 µM and 26.69 µM, respectively.

As to `Br.NCC[C@@H]1CNC(C2COc3ccccc3O2)=N1` (stereo partly drawn), at Nischarin, inhibition was half-maximal at 2.65 µM (IC50). In addition, the figures for the Ki in experiment [1] and in experiment [2] were 9.61 µM and 5.412 µM, respectively.

Compound `Br.NCC[C@H]1CNC(Nc2ccc(Cl)cc2Cl)=N1` showed an IC50 against Nischarin of 1.48 µM. Further, the Ki in experiment [1] worked out at 1.76 µM; in experiment [2], 0.854 µM.

As for `Br.NCC[C@@H]1CNC(Nc2c(Cl)cccc2Cl)=N1`, it took 2.72 µM to reach half-maximal inhibition against Nischarin (IC50). Also, the Ki in experiment [1] worked out at 9.56 µM; in experiment [2] it was 4.315 µM.

On Nischarin, `Br.NCC[C@H]1CNC(c2ccccc2)=N1` had an IC50 of 72.9 µM. The Ki worked out at 3.56 µM in experiment [1] and 43.07 µM in experiment [2].

In the case of `Br.NCC[C@H]1CNC(Nc2ccc(Br)cc2)=N1`, at Nischarin, the IC50 is 59.4 µM. Besides, the inhibitory constant (Ki) in experiment [1] is 81.2 µM; in experiment [2], 25.8 µM.

`Br.NCC[C@H]1CNC(Cc2cccc3ccccc23)=N1` gave an IC50 against Nischarin above 100 µM. In addition, the Ki in experiment [1] was found to be 1 µM; in experiment [2], 0.964 µM.

Compound `Br.CCC1(C2=N[C@H](CCN)CN2)Cc2ccccc2O1` (stereo partly drawn) displayed an IC50 on Nischarin of 32.5 µM. Also, the Ki came to 18.9 µM in experiment [1] and 0.869 µM in experiment [2].

Take `Br.NCC[C@H]1CNC(Nc2c(Cl)cccc2Cl)=N1`: the IC50 against Nischarin is 7.75 µM. In addition, the figures for the inhibition constant Ki in experiment [1] and in experiment [2] were 2.43 µM and 1.899 µM, respectively.

For the compound `Br.NCC[C@H]1CNC(C2COc3ccccc3O2)=N1` (stereo partly drawn), the IC50 at Nischarin stood at 5.11 µM. Further, the Ki in experiment [1] turned out to be 8.12 µM; in experiment [2], 24.02 µM.

`Br.NCC[C@H]1CNC(CN(Cc2ccccc2)c2ccccc2)=N1` came in with an IC50 against Nischarin of 11.6 µM. For the same compound, the Ki in experiment [1] was determined as 19.1 µM; in experiment [2], 481.8 µM.

At Nischarin, `Br.NCC[C@H]1CNC(NCc2ccccc2)=N1` showed an IC50 of 101 µM. For the same compound, the inhibitory constant (Ki) in experiment [1] is 7.5 µM; in experiment [2], 5.539 µM.

Consider `Br.CCC1(C2=N[C@@H](CCN)CN2)Cc2ccccc2O1` (stereo partly drawn), for which half-maximal inhibition against Nischarin (IC50) required 1.01 µM. For the same compound, the Ki in experiment [1] stood at 2.55 µM; in experiment [2], 20.35 µM.

In the case of `Br.NCC[C@H]1CNC(Nc2cccnc2)=N1`, the IC50 against Nischarin is above 1000 µM. The results for the Ki in experiment [1] and in experiment [2] were above 1000 µM and 19.66 µM, respectively.

Consider `Br.NCC[C@H]1CNC(/C=C/c2ccccc2)=N1`, for which the IC50 on Nischarin is 17.2 µM. Moreover, the figures for the Ki in experiment [1] and in experiment [2] were 11.2 µM and 3.896 µM, respectively.

As to `Br.NCC[C@@H]1CNC(Cc2cccc3ccccc23)=N1`, the IC50 on Nischarin worked out at 583 µM. The Ki in experiment [1] was found to be 46.3 µM; in experiment [2], 83.77 µM.

On Nischarin, `Br.NCC[C@H]1CNC(Nc2cccc(C(F)(F)F)c2)=N1` displayed an IC50 of 1.31 µM. For the same compound, the Ki in experiment [1] stood at 12.7 µM; in experiment [2] it was 3.007 µM.

Compound `Br.NCC[C@H]1CNC(c2ccccc2F)=N1` displayed an IC50 at Nischarin of 117 µM. Besides, the Ki is 27.6 µM in experiment [1] and 178.6 µM in experiment [2].
